# Measured values taken from ChEMBL document CHEMBL1134989, “Synthesis and stability study of a modified phenylpropionic acid linker-based esterase-sensitive prodrug” (Bioorg Med Chem Lett, 2002).
# Legend:
# [1] = Half-life in human plasma; format: ADME, cell-free
# [2] = Half-life of the parent prodrug in porcine esterase solution; format: ADME, Sus scrofa; settings: pig
# [3] = Half-life of the parent prodrug in plasma; format: ADME, cell-free; settings: human
structure (smiles),measurement,setting,value
COc1ccc(NC(=O)CC(C)(C)c2c(OC)cc(OC)cc2OC(C)=O)cc1,half-life,[1],52 min
COc1ccc(NC(=O)CC(C)(C)c2c(C)cc(C)cc2OC(C)=O)cc1,T1/2,[2],11.9 min
same,T1/2,[3],53.7 min
